Reference: patent US20260124226A1 (priority 2023, published 2026)
Several values for one entry are separate records, joined by “and”; a condition that tells them apart may be missing. Identical values can stand only once. Like-named read-outs stand apart in the source and are kept apart here.

What was measured:
RD cells = settings: human
[1] = male, Sprague-Dawley, rat, microsomes, pH 7.4
EBOV = test: microbe, parasite or virus in culture; type: cell-based, Ebola virus; settings: Zaire ebolavirus, Vero
Flu A H3N2 = test: microbe, parasite or virus in culture; type: cell-based, influenza A virus; settings: Influenza A virus, H3N2, MDCK
Poliovirus = test: microbe, parasite or virus in culture; type: cell-based; settings: Vero 76 cells
[2] = CD-1, mouse, microsomes
Heartland virus = test: microbe, parasite or virus in culture; type: cell-based; settings: Vero
Flu B = test: microbe, parasite or virus in culture; type: cell-based, influenza B virus; settings: Influenza B virus, MDCK
A549 = test: EIDD-2749 cytotoxicity; type: cell-based; settings: A549 cells
CHIKV = test: microbe, parasite or virus in culture; type: cell-based, Chikungunya virus
IEC-6 = test: EIDD-2749 cytotoxicity; type: cell-based; settings: IEC-6 cells
Huh-7 cells = settings: human
H9c-2 = test: EIDD-2749 cytotoxicity; type: cell-based; settings: H9c-2 cells
HRV-14 = test: microbe, parasite or virus in culture; type: cell-based, human rhinovirus
CEM = test: EIDD-2749 cytotoxicity; type: cell-based; settings: CEM cells
Vero 76 cells = settings: African green monkey
DENV2 = test: microbe, parasite or virus in culture; type: cell-based, Dengue virus 2; settings: Dengue virus, DENV2, Huh-7
MA-104 cells = settings: African green monkey
A-204 = test: EIDD-2749 cytotoxicity; type: cell-based; settings: A-204 cells
Vero = test: EIDD-2749 cytotoxicity; type: cell-based, African green monkey; settings: Vero cells
WEEV = test: microbe, parasite or virus in culture; type: cell-based, Western equine encephalitis virus; settings: Vero76 cells
[3] = female, ICR (CD-1), mouse, in vivo
ZIKV = test: microbe, parasite or virus in culture; type: cell-based, Zika virus; settings: Zika virus, Vero 76
Vero E6 cells = settings: African green monkey
Junin virus = test: microbe, parasite or virus in culture; type: cell-based; settings: for EC50: Junin virus strain Candid #1, Vero cells
Plasma stability [4] = settings: rat plasma, drug 1.00 μM
Pichinde virus = test: microbe, parasite or virus in culture; type: cell-based; settings: Vero
La Crosse virus = test: microbe, parasite or virus in culture; type: cell-based
Marburg virus = test: microbe, parasite or virus in culture; type: cell-based; settings: Filoviridae, Vero
Marpol virus = test: organism not typed; type: cell-based
MDCK cells = settings: dog
Enterovirus-68 = test: microbe, parasite or virus in culture; type: cell-based, EV-D68
Punta Toro virus = test: microbe, parasite or virus in culture; type: cell-based
MERS = test: microbe, parasite or virus in culture; type: cell-based, MERS coronavirus; settings: Middle East respiratory syndrome-related coronavirus, Vero 76
Influenza A H1N1 = test: microbe, parasite or virus in culture; type: cell-based, influenza A virus; settings: Influenza A virus, H1N1, MDCK
[5] = tested on: Severe fever thrombocytopenia syndrome virus; test: organism not typed; type: cell-based; settings: Vero
Plasma stability [6] = settings: human plasma, drug 1.00 μM, 37° C.
EEEV = test: microbe, parasite or virus in culture; type: cell-based, Eastern equine encephalitis virus
BxPc3 = test: EIDD-2749 cytotoxicity; type: cell-based; settings: BxPc3 cells
[7] = tested on: Lymphocytic choriomeningitis virus; test: microbe, parasite or virus in culture; type: cell-based; settings: Mammarenavirus choriomeningitidis, Vero

O=c1ccn([C@@H]2O[C@](F)(CO)[C@@H](O)[C@H]2O)c(=O)[nH]1 [EIDD-2749, 4′-fluorouridine]
CC50 (RD cells): > 380 µM | half-life [1]: 0.417 h | EC50 (EBOV): 1.52 µM | EC90 (EBOV): 22 µM | EC50 (Flu A H3N2): < 0.38 µM | EC50 (Poliovirus; Enterovirus C, Vero 76, Poliovirus strain Mahoney): 12.2 µM | EC50 (Poliovirus; Poliovirus strain Mahoney): 11.8 µM | half-life [2]: 0.45 h | EC90 (Heartland virus): 122 µM | EC50 (Flu B): < 0.38 µM | CC50 (A549): > 400 µM | EC50 (CHIKV): 2.05 µM and 3.42 µM | EC50 (CHIKV; Chikungunya virus, Vero 76): 1.98 µM | EC90 (CHIKV; Chikungunya virus, Vero 76): 9.12 µM | CC50 (IEC-6): 372 µM | CC50 (Huh-7 cells): > 380 µM | CC50 (H9c-2): > 400 µM | EC50 (HRV-14): 1.14 µM | EC50 (HRV-14; Rhinovirus B, HRV14): 1.22 µM | CC50 (CEM): 107 µM | CC50 (Vero 76 cells): > 380 µM | EC50 (DENV2): > 380 µM | CC50 (MA-104 cells): > 380 µM | CC50 (A-204): > 400 µM | CC50 (Vero): > 400 µM | EC50 (WEEV; WEEV strain California): 11.8 µM | EC50 (WEEV; Western equine encephalitis virus, Vero 76, WEEV strain California): 9.88 µM | AUC-INF ([3]; ip, 10 mg/kg): 19.6 µM·h | Cmax ([3]; ip, 10 mg/kg): 7.7 ± 2.3 µM | t1/2 ([3]; ip, 10 mg/kg): 6.3 h | AUC-INF ([3]; po, 50 mg/kg): 232.3 µM·h | Bioavailability ([3]; po, 50 mg/kg): 236% | Cmax ([3]; po, 50 mg/kg): 35.2 ± 9.7 µM | t1/2 ([3]; po, 50 mg/kg): 8.3 h | AUC-INF ([3]; po, 150 mg/kg): 392.3 µM·h | Bioavailability ([3]; po, 150 mg/kg): 133% | Cmax ([3]; po, 150 mg/kg): 43.6 ± 2.8 µM | t1/2 ([3]; po, 150 mg/kg): 8.5 h | AUC-INF ([3]; po, 500 mg/kg): 755.2 µM·h | Bioavailability ([3]; po, 500 mg/kg): 77.0% | Cmax ([3]; po, 500 mg/kg): 76 ± 15.3 µM | t1/2 ([3]; po, 500 mg/kg): 12.9 h | EC90 (ZIKV): > 380 µM | CC50 (Vero E6 cells): > 380 µM | EC50 (Junin virus): 1.29 µM | EC90 (Junin virus; Mammarenavirus juninense, Vero): 0.38 µM | EC50 (Junin virus; Mammarenavirus juninense, Vero): 1.86 µM | half-life (Plasma stability [4]): 0.367 h | EC90 (Pichinde virus): 0.19 µM | EC50 (La Crosse virus): < 0.38 µM | EC50 (Marburg virus): > 380 µM | EC50 (Marpol virus): 57 µM | EC50 (Marpol virus; Vero C1008): 95 µM | CC50 (MDCK cells): > 380 µM | EC50 (Enterovirus-68): 11.8 µM | EC50 (Enterovirus-68; Enterovirus D, RD): 13.7 µM | EC50 (Punta Toro virus): 91.2 µM | EC50 (Punta Toro virus; Punta Toro virus, Vero 76): 72.2 µM | EC50 (MERS): > 380 µM | EC50 (Influenza A H1N1): < 0.38 µM | EC90 [5]: > 380 µM | half-life (Plasma stability [6]): 0.433 h | EC50 (EEEV; EEEV strain FL93-939, Vero76 cells): > 380 µM | EC50 (EEEV; Eastern equine encephalitis virus, Vero 76, EEEV strain FL93-939, Vero76 cells): 380 µM | CC50 (BxPc3): > 400 µM | EC90 [7]: 7.22 µM
